Each structure is given as a SMILES string.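 Protocol summary: plate cells (96-well), add compound at 5 concentrations, incubate 48 h, interpolate endpoints linearly. The concentration for 50% growth inhibition is given as GI50. The concentration for full growth arrest is given as TGI.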 A value given as a limit tells only on which side of the number the result lay.

The values below come from PubChem BioAssay (NCI).

Holding throughout (assay): NCI tumour cell line growth inhibition, 48 h
For assay [1], the system named is SF-539 CNS.
Assay [2] relates to NCI-H522 lung.
Assay [3] concerns MOLT-4 leukemia.
The test system of assay [4] is RXF 393 renal.
In assay [5] the test system is OVCAR-3 ovarian.
The subject of assay [6] is SR leukemia.
In assay [7] the test system is CCRF-CEM leukemia.
Assay [8] deals with COLO 205 colon.
Assay [9] concerns UACC-257 melanoma.
In assay [10] the test system is ACHN renal.

`COc1ccc(C/C(C)=C(\c2ccc(OCCN3CCOCC3)cc2)c2ccc(OC(=O)Cc3ccccc3)cc2)cc1`: the GI50 in [1] is 0.513 µM; in [2], 0.564 µM; in assay [3], 0.593 µM; in assay [4], 0.438 µM; in assay [5], 0.766 µM; in assay [6] it was 0.648 µM. In addition, the GI50 in assay [7] is 0.813 µM; in [8] it was 0.614 µM; in assay [9], 0.578 µM; in assay [10], 0.99 µM. In addition, the TGI in assay [1] was 0.977 µM; in assay [2] it was 1.08 µM; in assay [3], 1.91 µM; in assay [4] it was 0.883 µM; in assay [5], 1.66 µM; in assay [6], 1.73 µM. The TGI worked out at 8.27 µM in assay [7], 1.54 µM in [8], 1.09 µM in [9] and 3.38 µM in [10].

Regarding `Cn1ccnc1C(=O)/C=C/c1ccc(CC(=O)Nc2ccc(S(F)(F)(F)(F)F)cc2)cc1`, the GI50 in assay [1] was 1.02 µM; in assay [2], 3.43 µM; in assay [3], 0.578 µM; in assay [4] it was 2.67 µM; in assay [5], 2.18 µM; in [6], 0.53 µM. For the same molecule, the GI50 was 0.538 µM in assay [7], 3.08 µM in assay [8], 4.35 µM in [9] and 2.45 µM in assay [10]. Further, the TGI in assay [1] was 3.26 µM; in [2], 6.91 µM; in assay [3] it was 1.51 µM; in assay [4] it was 5.21 µM; in assay [5], 4.91 µM; in assay [6], 1.86 µM. For the same molecule, the TGI in assay [7] amounted to 16.7 µM; in [8] it was 6.66 µM; in [9], 10.5 µM; in assay [10], 4.82 µM.

For the molecule `COC(=O)c1cc(-c2cc(OC)c(OC)c(OC)c2)[nH]c1N/N=C/c1c(Cl)cccc1Cl`, the GI50 in [1] is 1.35 µM; in assay [2] it was 3.39 µM; in [3], 9.27 µM; in assay [4], 7.45 µM; in assay [5] it was 0.57 µM; in [6], 0.926 µM. The GI50 was 14.1 µM in [7], 4.49 µM in assay [8], 5.82 µM in [9] and 0.963 µM in assay [10]. For the same molecule, the TGI was 5.47 µM in assay [1]; 18.6 µM in [2]; > 56.3 µM in assay [3]; 31.4 µM in assay [4]; 3.02 µM in [5]; > 100 µM in assay [6]. The TGI in assay [7] is > 100 µM; in assay [8] it was > 68 µM; in assay [9], 35.7 µM; in [10] it was 9.17 µM.

For `Nc1c(Br)c(=O)[nH]c(=O)n1COCCO`, the TGI in assay [1], in [2], in assay [3], in assay [4], in assay [5] and in assay [6] was > 100 µM each time. Also, the TGI in [7], in assay [8], in assay [9] and in [10] was > 100 µM each time.

For `O=c1c2cccc3cccc(c4oc5c6cccc7cccc(c(=O)c5c14)c76)c32`, the TGI in assay [1] is 31.5 µM; in assay [2], 10.1 µM; in assay [3] it was 21.5 µM; in [4], 16.6 µM; in [5], 17 µM; in assay [6] it was 29.9 µM. Moreover, the TGI in assay [7] came out at 22.1 µM; in [8], 15.6 µM; in assay [9], 30 µM; in [10] it was 16.3 µM.

`O=C(/C=C/c1cccs1)c1ccc(Nc2nc(Nc3ccc(F)cc3)nc(Nc3ccc(F)cc3)n2)cc1`: the GI50 in assay [1] is 17.8 µM; in assay [2], 20.5 µM; in assay [3] it was 29.1 µM; in [4], 23.3 µM; in assay [5] it was 17.7 µM; in [6], 14.7 µM. The GI50 is 40.9 µM in [7], 12.5 µM in [8], 55.1 µM in assay [9] and 86.5 µM in [10]. Moreover, the TGI was 35.7 µM in assay [1]; 46.4 µM in assay [2]; > 100 µM in [3]; 75.1 µM in assay [4]; 35.3 µM in assay [5]; 60.1 µM in [6]. Further, the TGI in [7] was > 100 µM; in assay [8] it was 80.2 µM; in assay [9], > 100 µM; in [10] it was > 100 µM.

As for `C=CC1=C[C@@H]2[C@@H]3O[C@]4(CC[C@H](O4)[C@@H](C)C[C@@H](O)C3=O)C[C@H](O)C3=NCC[C@@]32CC1`, the GI50 in [1], in assay [2], in assay [3], in [4], in [5] and in assay [6] was < 0.00333 µM in each case. The GI50 in assay [7], in assay [8], in assay [9] and in assay [10] was < 0.00333 µM throughout. For the same molecule, the TGI in assay [1] was < 0.00333 µM; in assay [2], 0.00353 µM; in assay [3], 0.112 µM; in assay [4], < 0.00333 µM; in [5] it was < 0.00333 µM; in assay [6] it was > 33.3 µM. In addition, the TGI in [7] is > 33.3 µM; in [8], < 0.00333 µM; in assay [9], 0.00486 µM; in [10] it was < 0.00333 µM.

For `COC1(O)C(=O)c2ccccc2OC1(OC)c1ccccc1` (centres undefined), the TGI in assay [1], in [2], in assay [3], in [4], in assay [5] and in [6] was > 100 µM in each case. Moreover, the TGI in assay [7], in [8], in assay [9] and in [10] was > 100 µM throughout.

For `O=C1Nc2ccccc2C1Cc1ccc([N+](=O)[O-])cc1` (centres undefined), the TGI in assay [2], in assay [3], in assay [4], in [5], in assay [6] and in assay [7] was > 100 µM each time. The TGI in assay [8], in [9] and in [10] was > 100 µM throughout.
